Legend:
[1] = system: endothelial cells; details: cited from earlier work
[2] = cited from earlier work
[3] = system: AsPC-1 cells; experiment: Comparative studies, orthotopic AsPC-1 pancreatic tumor in nude mice; assay type: in vivo; details: subQ close to the pancreas, one injection per day for 10 days, total dose 20 mg/mouse; sacrificed at day 24; FIG. 4
Description: (§1) In these experiments nude mice weighing approximately 25 grams were used. First, the tail of the pancreas was exposed through an abdominal incision. Then 1×10^6 AsPC-1 cells were injected into the pancreas. The pancreas was replaced in the peritoneal cavity and the incision was closed. A 3-5 mm diameter tumor developed in 10 days.
MNTX was dissolved at 40 mg/mL in phosphate buffered saline (PBS) and then formulated to 100 uL (50 uL drug and 50 uL PBS) and injected subQ close to the pancreas. One injection per day was given for 10 days. The total dose was therefore 20 mg/mouse. For control and comparison, experiments on mice that were 1) not treated, 2) treated with light alone, 3) treated with gemcitibine alone, and 4) treated with Avastin alone using essentially the same procedure as described above were performed. The mice were sacrificed at day 24 and tumor weight was determined.
FIG. 4 provides local tumor burden experimental results for comparative studies involving administration of MNTX, Avastin and Gemcitabine anti-tumor agents. Tumor weight (mg) is shown for tumor conditions of: no treatment (NT); treatment with light alone (light alone); treatment with Gemcitabine alone (GEM); treatment with Avastin alone (Avastin) and treatment with MNTX (MNTX).

[4] = system: AsPC-1 pancreatic cancer; experiment: Pancreatic tumor growth inhibition studies, orthotopic AsPC-1 pancreatic cancer; assay type: in vivo, nude mice; details: I.P. 150 mg/kg daily for 13 days, 10 animals, sacrificed on day 24; control PBS; FIG. 6
Description: In these experiments, the effect of a purified stereoisomer of MNTX on AsPC-1 pancreatic cancer was evaluated.
as §1, with “Nude” for “In these experiments nude”, “The” for “First, the”
MNTX1 was formulated at 10 mg/mL in PBS. The 150 mg/kg dose was accomplished by a […] injection of a 10 mg/mL stock solution. Injections were done daily for 13 days, and the 10 animals were subsequently sacrificed on day 24. Treatments start after 10 days of AsPC1 pancreatic tumor cell orthotopic implantation. After two more weeks, the mice are sacrificed and tumor weight is measured for the evaluation of tumor growth inhibition effects. For control, four mice were injected according to the above schedule with PBS only. They were also sacrificed on day 24. FIG. 5 provides a schematic illustrating the experimental design of the pancreatic tumor growth inhibition studies. I.P. treatments (150 mg MNTX1/kg/each injection, 300 μl of 10 mg/ml for each injection totally for 13 times, animal number=10).
FIG. 6 provides experimental results for the pancreatic tumor growth inhibition studies showing the effects of MNTX1 on AsPC-1 pancreatic cancer. […]

[5] = Escalating dose study on mice; assay type: in vivo; details: intraperitoneal injection
Description: The MNTX1 dose was established using an escalating dose study on mice. An intraperitoneal injection dose of 150 mg/kg was chosen. For a dosage of 400 mg/kg, 2 of 2 died, for a dosage of 200 mg/kg, 1 of 4 died; and for a dosage of 150 mg/kg (300 μl of 10 mg/ml), 3 of 3 survived. Therefore, a dose of 150 mg/kg (Intraperitoneal injection, I.P.) was used for each administration in the following orthotopic pancreatic tumor growth inhibition experiments.

[6] = system: VEGF expression; details: cited from earlier work

C[N@+]1(CC2CC2)CC[C@]23c4c5ccc(O)c4O[C@H]2C(=O)CC[C@@]3(O)[C@H]1C5 [methylnaltrexone, reference compound]
potentiation of the cytotoxic effect of 5-fluorouracil [1]: ~700 ×

α-interferon
adverse effects ([2]; clinically tested for MD): high rate of adverse effects | clinical efficacy for MD ([2]; clinically tested for MD): ineffective

C[N@+]1(CC2CC2)CC[C@@]23c4c5ccc(O)c4CC1C2(O)CCC(=O)C3O5 (single isomer, unassigned; (-)) [MNTX, (−)-R-naltrexone methobromide]
tumor weight measured at sacrifice [3]: measurably superior to the control, Gemcitabine and Avastin conditions | tumor weight measured at sacrifice [4]: measurably superior to the control | survived ([5]; dosage of 150 mg/kg (300 μl of 10 mg/ml)): 3 of 3 | died ([5]; dosage of 200 mg/kg): 1 of 4 | died ([5]; dosage of 400 mg/kg): 2 of 2 | synergy with Avastin to inhibit VEGF expression [1]: synergistic | synergy with 5-fluorouracil ([1]; in endothelial cells): synergistic

COc1ccc2cc3[n+](cc2c1OC)CCc1cc2c(cc1-3)OCO2 [berberine]
inhibition of VEGF expression [6]: some inhibition

B1: Lucentis: humanized anti-VEGF antibody fragment that inhibits VEGF activity by competitive binding (antibody, chains of the INN, looked up, V domains shown)
VH: EVQLVESGGGLVQPGGSLRLSCAASGYDFTHYGMNWVRQAPGKGLEWVGWINTYTGEPTYAADFKRRFTFSLDTSKSTAYLQMNSLRAEDTAVYYCAKYPYYYGTSHWYFDVWGQGTLVTVSS
VL: DIQLTQSPSSLSASVGDRVTITCSASQDISNYLNWYQQKPGKAPKVLIYFTSSLHSGVPSRFSGSGSGTDFTLTISSLQPEDFATYYCQQYSTVPWTFGQGTKVEIK
modifications: Fab
patients maintaining their baseline vision ([2]; wet macular degeneration, after 12 months of treatment): About 95%

Source: patent US9527858B2, “Compounds and compositions for use in phototherapy and in treatment of ocular neovascular disease and cancers” (Mallinckrodt LLC, priority 2009, dated 2016)
